The source of these data is patent US20110077237A1, “KINASE INHIBITORS” (VERTEX PHARMACEUTICALS INCORPORATED, priority 2007, published 2011).

A value given as a limit tells only on which side of the number the result lay.

One assay deals with PKC delta kinase (Homo sapiens, UniProt Q05655). The experiment in a line: PKC Delta coupled-enzyme kinase assay. Type of assay: biochemical. As to conditions: 46 nM PKC delta, 150 μM ATP, 30° C.; read-out: Ki PKC delta. The protocol: An assay buffer solution was prepared which consisted of 100 mM HEPES (pH 7.5), 10 mM MgCl2, 25 mM NaCl, 0.1 mM EDTA and 0.01% Brij. […] To 16 μL of this enzyme buffer, in a 384 well plate, was added 1 μL of VRT stock solution in DMSO. The mixture was allowed to equilibrate for 10 mins at 30° C. […] Ki values were calculated from initial rate data by non-linear regression using the Prism software package (Prism 4.0a, Graphpad Software, San Diego, Calif.).

A further assay has as its target PKC alpha kinase (Homo sapiens, UniProt P17252). The experiment in a line: PKC Alpha coupled-enzyme kinase assay. It is filed as biochemical. As to conditions: 4.5 nM PKC alpha, 130 μM ATP, 30° C. The protocol: An assay buffer solution was prepared which consisted of 100 mM HEPES (pH 7.5), 10 mM MgCl2, 25 mM NaCl, 0.1 mM EDTA, 100 μM CaCl2 and 0.01% Brij. […] To 16 μL of this enzyme buffer, in a 384 well plate, was added 1 μL of VRT stock solution in DMSO. The mixture was allowed to equilibrate for 10 mins at 30° C. The enzyme reaction was initiated by the addition of 16 μL stock ATP solution prepared in assay buffer to a final assay concentration of 130 μM. Initial rate data was determined from the rate of change of absorbance at 340 nm (corresponding to stoichiometric consumption of NADH) using a Molecular Devices Spectramax plate reader (Sunnyvale, Calif.) over 15 mins at 30° C. For each Ki determination 12 data points covering the VRT concentration range of 0-20 μM were obtained in duplicate (DMSO stocks were prepared from an initial 10 mM VRT stock with subsequent 1:2 serial dilutions). Ki values were calculated from initial rate data by non-linear regression using the Prism software package (Prism 4.0a, Graphpad Software, San Diego, Calif.).

Sequence of PKC delta kinase (Q05655 whole entry): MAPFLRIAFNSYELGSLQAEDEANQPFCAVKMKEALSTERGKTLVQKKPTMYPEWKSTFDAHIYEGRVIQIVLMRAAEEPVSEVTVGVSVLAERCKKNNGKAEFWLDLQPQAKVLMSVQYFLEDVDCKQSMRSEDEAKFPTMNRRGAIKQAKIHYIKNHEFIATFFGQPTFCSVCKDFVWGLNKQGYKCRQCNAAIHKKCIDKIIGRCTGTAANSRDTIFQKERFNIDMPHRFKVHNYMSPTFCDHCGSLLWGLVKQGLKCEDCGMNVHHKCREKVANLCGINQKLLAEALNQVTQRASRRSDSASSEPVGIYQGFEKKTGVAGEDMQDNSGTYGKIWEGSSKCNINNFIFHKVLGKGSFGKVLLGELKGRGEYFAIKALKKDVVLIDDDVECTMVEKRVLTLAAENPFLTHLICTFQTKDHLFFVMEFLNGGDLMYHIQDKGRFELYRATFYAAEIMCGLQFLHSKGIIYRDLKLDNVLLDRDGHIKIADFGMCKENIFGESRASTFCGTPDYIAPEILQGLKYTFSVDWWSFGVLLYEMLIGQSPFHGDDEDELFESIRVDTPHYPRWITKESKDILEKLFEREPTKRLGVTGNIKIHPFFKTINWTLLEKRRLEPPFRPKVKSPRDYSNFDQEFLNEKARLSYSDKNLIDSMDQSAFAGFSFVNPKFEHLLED

In the case of `CC(F)(F)c1ccc(N2CCNC(c3ccccc3)C2)nc1C(=O)c1cccnc1N` (centres unmarked) [compound 355], the Ki on PKC delta kinase fell in the range of 50 to 500 nM; at PKC alpha kinase, 500 to 2800 nM.
On the same counts, the results for `Nc1ncccc1C(=O)c1cccc(N2CCNC(CO)C2)n1` (centres unmarked) [compound 303] are 50 to 500 nM and 500 to 2800 nM.
`CC(C)=Cc1cnc(N)c(C(=O)c2cccc(N3CCCNCC3)n2)c1` [compound 246]: the Ki on PKC delta kinase is 50 to 500 nM; on PKC alpha kinase it was < 50 nM.
Take `NCC1CCCN(c2cccc(C(=O)c3cccnc3N)n2)C1` (centres unmarked) [compound 333]: the Ki at PKC delta kinase and on PKC alpha kinase was > 2800 nM throughout.
Regarding `Cc1ccccc1C1CN(c2cccc(C(=O)c3cccnc3N)n2)CCN1` (centres unmarked) [compound 339], the results for the Ki on PKC delta kinase and at PKC alpha kinase were 50 to 500 nM and 500 to 2800 nM, respectively.
The corresponding values for `NCCNc1ccc(C(F)(F)F)c(C(=O)c2cccnc2N)n1` [compound 371] are 500 to 2800 nM and 500 to 2800 nM.
On the same counts, the results for `CCc1ccc(N2CCNCC2)nc1C(=O)c1cccnc1N` [compound 348] are 50 to 500 nM and > 2800 nM.
In turn, `CC(C)C[C@H]1CN(c2ccc(Cc3ccccc3)c(C(=O)c3cccnc3N)n2)CCN1` [compound 418] yielded a Ki at PKC alpha kinase of 500 to 2800 nM.
On PKC alpha kinase, `CCCc1ccc(N2CCN[C@@H](CC(C)C)C2)nc1C(=O)c1cccnc1N` [compound 385] showed a Ki of 500 to 2800 nM.
Regarding `Cc1sc(N2CCCNCC2)nc1C(=O)c1cccnc1N` [compound 109], the Ki at PKC delta kinase and on PKC alpha kinase was 500 to 2800 nM in each case.
Turning to `Cc1cccc(C2CN(c3ccc(C(F)(F)F)c(C(=O)c4cccnc4N)n3)CCN2)c1` (centres unmarked) [compound 392], the Ki was 50 to 500 nM at PKC delta kinase and < 50 nM at PKC alpha kinase.
`C=Cc1cnc(N)c(C(=O)c2nc(N3CCNCC3)ccc2Cl)c1` [compound 330]: the Ki at PKC alpha kinase is < 50 nM.
For `Nc1ncccc1C(=O)c1nccc(N2CCNC(c3ccccc3)C2)n1` (centres unmarked) [compound 341], the Ki on PKC delta kinase and on PKC alpha kinase was > 2800 nM throughout.
For the molecule `NCCSc1ccc(C(F)(F)F)c(C(=O)c2cccnc2N)n1` [compound 367], the Ki on PKC delta kinase and at PKC alpha kinase was 500 to 2800 nM each time.
On to `Nc1ncc(CCc2ccccc2)cc1C(=O)c1cccc(N2CCCNCC2)n1` [compound 187], for which the Ki at PKC delta kinase is 50 to 500 nM; at PKC alpha kinase it was < 50 nM.
The corresponding values for `Nc1ncccc1C(=O)c1nc(N2CCNCC2)cnc1Cl` [compound 343] are 50 to 500 nM and 500 to 2800 nM.
On the same counts, the results for `Nc1ncc(Cc2ccccc2)cc1C(=O)c1cccc(N2CCCNCC2)n1` [compound 188] are 50 to 500 nM and < 50 nM.
On the same counts, the results for `CC(C)C[C@H]1CN(c2ccc(CC(F)F)c(C(=O)c3cccnc3N)n2)CCN1` [compound 401] are 50 to 500 nM and 500 to 2800 nM.
For `Nc1ncccc1C(=O)c1nc(NCC2CCCN2)ccc1C(F)(F)F` (centres unmarked) [compound 379], the Ki on PKC delta kinase and on PKC alpha kinase was 500 to 2800 nM in each case.
For the molecule `C=Cc1ccc(N2CCNCC2)nc1C(=O)c1cccnc1N` [compound 342], the figures for the Ki at PKC delta kinase and at PKC alpha kinase were 50 to 500 nM and 500 to 2800 nM, respectively.
On the same counts, the results for `Nc1ncc(Br)cc1C(=O)c1nc(N2CCNCC2)ccc1C(F)(F)F` [compound 325] are 50 to 500 nM and < 50 nM.
Take `CC(C)C[C@H]1CN(c2ccc(Cl)c(C(=O)c3cccnc3N)n2)CCN1` [compound 323]: at PKC alpha kinase, the Ki was < 50 nM.
For `Nc1ncccc1C(=O)c1nc(Cl)cnc1N1CCNCC1` [compound 340], the Ki on PKC delta kinase and on PKC alpha kinase was > 2800 nM each time.
Consider `CC(C)[C@H]1CN(c2ccc(C(F)(F)F)c(C(=O)c3cccnc3N)n2)CCN1` [compound 338], for which the Ki at PKC delta kinase lay within 50 to 500 nM; on PKC alpha kinase, 500 to 2800 nM.
In the case of `CCc1ccc(N2CCNC(c3ccccc3)C2)nc1C(=O)c1cccnc1N` (centres unmarked) [compound 350], the Ki was in the range of 50 to 500 nM on PKC delta kinase and 500 to 2800 nM at PKC alpha kinase.
With `NCCCNc1ccc(C(F)(F)F)c(C(=O)c2cccnc2N)n1` [compound 372], the Ki at PKC delta kinase and on PKC alpha kinase was 500 to 2800 nM each time.
In the case of `Nc1ncc(Br)cc1C(=O)c1nc(N2CCNC(c3ccccc3)C2)ccc1C(F)(F)F` (centres unmarked) [compound 326], the figures for the Ki on PKC delta kinase and at PKC alpha kinase were 50 to 500 nM and < 50 nM, respectively.
Regarding `Cc1ccc(N2CCNCC2)nc1C(=O)c1cccnc1N` [compound 230], the Ki on PKC delta kinase and on PKC alpha kinase was 500 to 2800 nM throughout.
As for `CC(C)[C@H](N)COc1ccc(C(F)(F)F)c(C(=O)c2cccnc2N)n1` [compound 400], the Ki on PKC delta kinase and on PKC alpha kinase was 500 to 2800 nM in each case.
As to `Nc1ncc(Br)cc1C(=O)c1cccc(N2CCNC(c3ccccc3)C2)n1` (centres unmarked) [compound 240], the values for the Ki on PKC delta kinase and at PKC alpha kinase were 50 to 500 nM and < 50 nM, respectively.
Turning to `CC(C)C[C@H]1CN(c2ccc(C3CC3)c(C(=O)c3cccnc3N)n2)CCN1` [compound 352], the Ki on PKC alpha kinase lay within 500 to 2800 nM.
On the same count and under the same terms, in the case of `Nc1ncccc1C(=O)c1nc(OCC(N)c2ccccc2)ccc1C(F)(F)F` (centres unmarked) [compound 415] it was < 50 nM.
In the case of `Nc1ncc(-c2cccc(CO)c2)cc1C(=O)c1cccc(N2CCNC(c3ccccc3)C2)n1` (centres unmarked) [compound 283], the Ki on PKC delta kinase lay within 50 to 500 nM.
The same measure, in the same setting: in the case of `C=Cc1cnc(N)c(C(=O)c2cccc(N3CCCN(C)CC3)n2)c1` [compound 152] it was 50 to 500 nM; in that of `COc1ccc(-c2cnc(N)c(C(=O)c3cccc(N4CCCNCC4)n3)c2)cc1` [compound 186], 50 to 500 nM.
Same read-out and setting: in the case of `Nc1ncccc1C(=O)c1nc(N2CCCNCC2)ccc1C(F)(F)F` [compound 318] it was 50 to 500 nM.
Take `C#Cc1cnc(N)c(C(=O)c2cccc(N3CCCNCC3)n2)c1` [compound 108]: on PKC alpha kinase, the Ki was < 50 nM.
`Nc1ncc(-c2ccncc2)cc1C(=O)c1cccc(N2CCNC(c3ccccc3)C2)n1` (centres unmarked) [compound 288]: the Ki at PKC delta kinase lay in the range of 500 to 2800 nM.
Still for that read-out and setting: the result for `Nc1ncc(-c2cccc(O)c2)cc1C(=O)c1cccc(N2CCNC(c3ccccc3)C2)n1` (centres unmarked) [compound 260] reads 50 to 500 nM.
Consider `Nc1ncccc1C(=O)c1nc(N2CCNC(c3ccccc3)C2)ccc1C(F)F` (centres unmarked) [compound 404], for which the Ki on PKC delta kinase lay in the range of 50 to 500 nM.
As for `CC#Cc1ccc(N2CCNCC2)nc1C(=O)c1cccnc1N` [compound 412], the Ki at PKC delta kinase fell in the range of 50 to 500 nM.
`Nc1ncc(Cl)cc1C(=O)c1cccc(N2CCCNCC2)n1` [compound 245]: the Ki on PKC delta kinase was 50 to 500 nM.
Still for that read-out and setting: in the case of `Nc1ncc(Br)cc1C(=O)c1cncc(N2CCCNCC2)n1` [compound 149] it was 50 to 500 nM; in that of `CN1CCCN(c2csc(C(=O)c3cc(Br)cnc3N)n2)CC1` [compound 163], 50 to 500 nM.
On to `C=Cc1cnc(N)c(C(=O)c2nc(N3CCNCC3)ccc2C(F)(F)F)c1` [compound 327], for which the Ki at PKC alpha kinase is < 50 nM.
Turning to `CC(C)(C)C(=O)N1CCCN(c2cccc(C(=O)c3cccnc3N)n2)CC1` [compound 37], at PKC delta kinase, the Ki fell in the range of 500 to 2800 nM.
As for `CN1CCCN(c2cncc(C(=O)c3cc(Br)cnc3N)n2)CC1` [compound 156], on PKC delta kinase, the Ki fell in the range of 50 to 500 nM.
Turning to `CC(C)(C)CCN1CCCN(c2cccc(C(=O)c3cccnc3N)n2)CC1` [compound 44], the Ki on PKC delta kinase is > 2800 nM.
`Cc1sc(N2CCNC[C@H]2C)nc1C(=O)c1cccnc1N` [compound 247]: the Ki on PKC delta kinase is 500 to 2800 nM.
The same measure, in the same setting: the result for `Nc1ncc(Br)cc1C(=O)c1cccc(N2CCCN(CCO)CC2)n1` [compound 98] reads 50 to 500 nM; that for `Nc1ncc(-c2c[nH]c3ccccc23)cc1C(=O)c1cccc(N2CCNC(c3ccccc3)C2)n1` (centres unmarked) [compound 268], 50 to 500 nM.
For the molecule `C=Cc1cnc(N)c(C(=O)c2cccc(N3CCNCC3)n2)c1` [compound 202], the Ki at PKC alpha kinase was < 50 nM.
For the molecule `Nc1ncccc1C(=O)c1nc(N2CCC(N)CC2)ccc1Cl` [compound 322], the Ki at PKC delta kinase was 50 to 500 nM.
For `Nc1ncc(-c2ccsc2)cc1C(=O)c1cccc(N2CCNC(c3ccccc3)C2)n1` (centres unmarked) [compound 264], the Ki on PKC delta kinase lay in the range of 500 to 2800 nM.
With `COc1cccc(-c2cnc(N)c(C(=O)c3cccc(N4CCNC(c5ccccc5)C4)n3)c2)c1` (centres unmarked) [compound 286], on PKC delta kinase, the Ki is 50 to 500 nM.
Still for that read-out and setting: in the case of `Nc1ncc(/C=C/c2ccccc2)cc1C(=O)c1cccc(N2CCCNCC2)n1` [compound 167] it was 50 to 500 nM; in that of `Nc1ncc(Br)cc1C(=O)c1cccc(N2CCCN(C(=O)c3ccccc3Cl)CC2)n1` [compound 151], 500 to 2800 nM; in that of `Nc1ncc(-c2cccnc2)cc1C(=O)c1cccc(N2CCCNCC2)n1` [compound 58], 50 to 500 nM.
For the molecule `CC1(N)CCN(c2cccc(C(=O)c3cccnc3N)n2)CC1` [compound 305], the Ki on PKC delta kinase lay within 50 to 500 nM.
Regarding `Nc1ncccc1C(=O)c1nc(NC[C@@H](N)c2ccccc2)ccc1C(F)(F)F` [compound 388], the Ki at PKC alpha kinase was < 50 nM.
On to `Nc1ncc(-c2ccccc2)cc1C(=O)c1cccc(N2CCNCC2)n1` [compound 206], for which the Ki on PKC delta kinase was in the range of 50 to 500 nM.
Consider `Nc1ncc(Br)cc1C(=O)c1ncc(C(=O)NCc2ccccc2)s1` [compound 62], for which the Ki on PKC delta kinase fell in the range of 50 to 500 nM.
The same measure, in the same setting: the result for `Nc1ncc(Br)cc1C(=O)c1nc(N2CCNCC2)ccc1Cl` [compound 329] reads 50 to 500 nM.
